Measured values from US20240316047A1, “INHIBITORS OF RNA HELICASE DHX9 AND USES THEREOF” (ACCENT THERAPEUTICS, INC., priority 2022, published 2024).

Molecular target: Human recombinant DHX9 protein (Homo sapiens (Human), UniProt Q08211)
Assay: DHX9 ATPase assay (ADP-Glo)
Format: biochemical
Settings: for IC50: read-out: DHX9 Biochemical Inflection Point

Chain of Human recombinant DHX9 protein (Q08211 whole entry): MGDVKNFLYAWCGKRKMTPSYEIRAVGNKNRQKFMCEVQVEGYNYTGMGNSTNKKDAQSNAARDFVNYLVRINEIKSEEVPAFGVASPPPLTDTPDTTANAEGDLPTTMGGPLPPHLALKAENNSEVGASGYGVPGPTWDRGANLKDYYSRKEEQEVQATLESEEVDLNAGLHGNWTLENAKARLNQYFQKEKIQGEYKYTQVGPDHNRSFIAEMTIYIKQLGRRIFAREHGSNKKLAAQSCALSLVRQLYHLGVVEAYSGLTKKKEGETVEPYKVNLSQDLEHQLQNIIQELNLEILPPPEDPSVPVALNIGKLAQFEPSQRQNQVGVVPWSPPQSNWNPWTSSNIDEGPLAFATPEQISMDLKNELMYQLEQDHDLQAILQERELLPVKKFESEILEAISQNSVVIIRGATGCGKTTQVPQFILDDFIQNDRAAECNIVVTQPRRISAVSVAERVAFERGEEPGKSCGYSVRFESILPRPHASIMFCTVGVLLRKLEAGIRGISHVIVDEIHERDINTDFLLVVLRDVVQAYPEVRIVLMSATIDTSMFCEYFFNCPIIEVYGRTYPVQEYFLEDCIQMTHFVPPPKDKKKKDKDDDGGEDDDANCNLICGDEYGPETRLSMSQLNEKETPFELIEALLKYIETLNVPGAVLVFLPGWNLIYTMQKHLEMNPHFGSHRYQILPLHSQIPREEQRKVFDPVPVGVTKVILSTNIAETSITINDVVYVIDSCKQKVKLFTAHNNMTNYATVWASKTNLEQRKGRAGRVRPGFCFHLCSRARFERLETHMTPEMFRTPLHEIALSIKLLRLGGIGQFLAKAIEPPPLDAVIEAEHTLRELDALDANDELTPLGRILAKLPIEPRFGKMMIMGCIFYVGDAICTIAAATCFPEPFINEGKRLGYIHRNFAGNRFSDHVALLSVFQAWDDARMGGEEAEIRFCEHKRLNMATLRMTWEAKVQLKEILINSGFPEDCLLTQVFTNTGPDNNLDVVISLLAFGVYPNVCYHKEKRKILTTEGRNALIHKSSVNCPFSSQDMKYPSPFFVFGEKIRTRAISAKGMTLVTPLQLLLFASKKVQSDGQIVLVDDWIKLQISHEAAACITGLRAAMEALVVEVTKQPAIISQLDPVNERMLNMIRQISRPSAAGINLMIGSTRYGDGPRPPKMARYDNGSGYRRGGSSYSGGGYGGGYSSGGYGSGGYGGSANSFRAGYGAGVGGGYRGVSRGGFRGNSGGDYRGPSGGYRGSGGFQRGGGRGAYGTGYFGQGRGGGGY

Compound | DHX9 Biochemical Max Inhibition | IC50 [nM]
CS(=O)(=O)Nc1cc(Br)cc(NC(=O)c2cc(Cc3ccc[nH]3)cs2)c1 [Example 104, 4-((1H-pyrrol-2-yl)methyl)-N-(3-bromo-5-(methylsulfonamido)phenyl)-thiophene-2-carboxamide] | 68% | 61
Cc1sc(C(=O)Nc2cc(Cl)cc(NS(C)(=O)=O)c2)cc1-c1ncc(OCC(F)(F)F)cn1 [Example 706] | 96.1 | 19.6
Cc1sc(C(=O)Nc2cc(Cl)cc(NS(C)(=O)=O)c2)cc1-c1ncc(F)cc1C#CC(C)(C)O [Example 696] | 75.4 | 11.5
CS(=O)(=O)Nc1cc(Br)cc(NC(=O)c2cnn(-c3ccc(C(F)(F)F)cn3)c2)c1 [Example 43] | 49.8% | 258
CS(=O)(=O)Nc1cc(Cl)cc(NC(=O)c2cnn(-c3ccccc3Oc3ncccn3)c2)c1 [Example 263] | 63.8% | 170
Cn1cc(C(=O)Nc2cc(Cl)cc(NS(=O)(=O)C3CC3)c2)cc1-c1ccc(N2CC(F)(F)C2)cn1 [Example 530] | 83.7 | 427
CS(=O)(=O)Nc1cc(Cl)cc(NC(=O)c2cc(-c3ncc(F)cn3)n(CC(F)(F)F)c2)c1 [Example 562] | 62.3 | 64.5
Cc1cccnc1-c1csc(C(=O)Nc2cc(F)cc(NS(C)(=O)=O)c2)c1 [Example 334] | 81.5% | 10.9
Cn1cc(C(=O)Nc2cc(Cl)cc(NS(C)(=O)=O)c2)cc1-c1ncc(F)cc1C#N [Example 546] | 73.6 | 13.1
CS(=O)(=O)Nc1cc(Cl)cc(NC(=O)c2cnn(-c3c(F)cccc3OCc3cnco3)c2)c1 [Example 721] | 68.1 | 231
Cc1cc(C(=O)Nc2cc(Cl)cc(NS(C)(=O)=O)c2)cn1-c1ccc(OC(C)(C)C)cn1 [Example 663] | 66.3 | 33
CS(=O)(=O)Nc1cc(Cl)cc(NC(=O)c2cc(-c3ccccc3)c[nH]2)c1 [Example 8] | 54.4% | 395
CS(=O)(=O)Nc1cc(Cl)cc(NC(=O)c2cc(-c3ccc(F)cn3)n(CC(F)F)c2)c1 [Example 286] | 72.9% | 240
CS(=O)(=O)Nc1cc(Cl)cc(NC(=O)c2cc3ncccc3s2)c1 [Example 289] | 66.9% | 80.6
Cc1sc(C(=O)Nc2cc(Cl)cc(NS(C)(=O)=O)c2)cc1-c1ncccc1O [Example 227] | 70.6% | 7.2
CS(=O)(=O)Nc1cc(Cl)cc(NC(=O)c2cnn([C@H]3CCC[C@H]3Oc3ccccc3)c2)c1 (single isomer, unassigned) [Example 259] | 69.2% | 
Cc1sc(C(=O)Nc2cc(Cl)cc(NS(C)(=O)=O)c2)c(F)c1-c1ncc(OC(C)C)cn1 [Example 683] | 62.5 | 1710
Cc1sc(C(=O)Nc2cc(Cl)cc(NS(C)(=O)=O)c2)cc1-c1ncc(C#N)cc1F [Example 375] | 64.6% | 34.6

Compound | DHX9 Biochemical Max Inhibition | IC50 [nM]
CS(=O)(=O)Nc1cc(Cl)cc(NC(=O)c2cc(-c3ncc(F)cn3)n(C3CNC3)c2)c1 [Example 652] | 68.1 | 343
Cc1sc(C(=O)Nc2cc(Cl)cc(NS(C)(=O)=O)c2)cc1-c1ncc(N2CC3C(C2)C3(C)C)cc1F (stereo not drawn) [Example 476] | 61.1 | 312
Cc1cccnc1-c1cc(C(=O)Nc2cc(F)cc(NS(C)(=O)=O)c2)sc1C [Example 333] | 78.1% | 35.1
CCS(=O)(=O)Nc1cc(Cl)cc(NC(=O)c2cc(-c3ncc(F)cn3)n(C)c2)c1 [Example 542] | 73 | 30
CP(C)(=O)c1cccnc1-n1cc(C(=O)Nc2cc(Cl)cc(NS(C)(=O)=O)c2)cn1 [Example 201] | 66.1% | 184
Cc1sc(C(=O)Nc2cc(Cl)cc(NS(C)(=O)=O)c2)cc1-c1ncccc1OCc1cncc(F)c1 [Example 621] | 74.4 | 6.8
CS(=O)(=O)Nc1cc(Cl)cc(NC(=O)c2cnn(-c3ncc(N4CCOCC4)cc3OCc3cccnc3)c2)c1 [Example 194] | 64.3% | 6.8
Cn1cc(C(=O)Nc2cc(Cl)cc(NS(C)(=O)=O)c2)cc1-c1ncc(N2CC(F)(F)C2)cn1 [Example 597] | 69.1 | 22
Cc1sc(C(=O)Nc2cc(Cl)cc(NS(C)(=O)=O)c2)cc1-c1ncc(OC(C)(C)C(=O)O)cn1 [Example 670] | 73.4 | 6.2
Cc1cc(C(=O)Nc2cc(Cl)cc(NS(C)(=O)=O)c2)cn1-c1ccc(N2CCC2)cn1 [Example 397] | 77.2 | 10.2
COC1CN(c2ccc(-c3cc(C(=O)Nc4cc(Cl)cc(NS(C)(=O)=O)c4)cn3C)nc2)C1 [Example 465] | 85.3 | 6.8
Cn1cc(C(=O)Nc2cc(Cl)cc(NS(C)(=O)=O)c2)cc1-c1ncccc1OCc1nccs1 [Example 279] | 73.2% | 4
Cc1sc(C(=O)Nc2cc(Cl)cc(NS(C)(=O)=O)c2)cc1-c1ncc(C2CCN(CC(F)(F)F)CC2)cc1F [Example 618] | 66.6 | 59.2
Cc1sc(C(=O)Nc2cc(Cl)cc(NS(C)(=O)=O)c2)cc1-c1ncccn1 [Example 22] | 71% | 2.5
Cc1cc(C(=O)Nc2cc(Cl)cc(NS(=O)(=O)C(F)F)c2)cn1-c1ccc(N2CCOCC2)cn1 [Example 248] | 70.8% | 185
Cn1cc(C(=O)Nc2cc(Cl)cc(NS(C)(=O)=O)c2)cc1-c1ncccc1OCc1cncc(F)c1 [Example 174, N-(3-chloro-5-(methylsulfonamido)phenyl)-5-(3-((5-fluoropyridin-3-yl)methoxy)pyridin-2-yl)-1-methyl-1H-pyrrole-3-carboxamide] | 75.8% | 1.8
Cc1sc(C(=O)Nc2cc(Cl)cc(NS(C)(=O)=O)c2)cc1-c1cn(-c2ccccc2)nn1 [Example 236] | 68.9% | 52.1
